From patent US8084481B2, “Substituted arylimidazolone and triazolone as inhibitors of vasopressin receptors” (Bayer Pharma Aktiengesellschaft, priority 2006, dated 2011)

Legend:
human V1a receptor = biological target: T1, human V1a receptor (Homo sapiens, UniProt P37288); assay: Cellular in vitro test for determination of the vasopressin receptor activity (aequorin luminescence, CHO cells), human V1a; format: cell-based; settings: cell line transfected with the human V1a receptor, antagonism of [Arg8]-vasopressin, read-out: IC50 hV1a
T1 construct: expressed in transfected cells; host or cells: CHO K1 (ATCC), constitutively expressing a modified aequorin
T1 sequence (P37288 whole entry): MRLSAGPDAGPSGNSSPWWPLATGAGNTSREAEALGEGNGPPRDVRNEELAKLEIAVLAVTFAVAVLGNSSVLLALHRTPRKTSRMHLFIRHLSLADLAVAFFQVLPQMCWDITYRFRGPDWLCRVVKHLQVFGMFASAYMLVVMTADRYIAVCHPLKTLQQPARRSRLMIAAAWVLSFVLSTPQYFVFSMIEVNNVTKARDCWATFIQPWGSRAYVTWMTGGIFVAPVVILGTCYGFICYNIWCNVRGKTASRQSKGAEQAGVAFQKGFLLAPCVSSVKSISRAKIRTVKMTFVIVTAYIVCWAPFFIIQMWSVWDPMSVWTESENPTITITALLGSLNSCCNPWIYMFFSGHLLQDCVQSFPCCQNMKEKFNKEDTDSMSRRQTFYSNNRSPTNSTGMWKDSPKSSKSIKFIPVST
Excerpt: (§1) B-1. Cellular In Vitro Test for Determination of the Vasopressin Receptor Activity
(§2) The identification of agonists and antagonists of the V1a- and V2-vasopressin receptors in man and the rat and the quantification of the activity of the compounds according to the invention are effected by means of recombinant cell lines. These cells are originally derived from the ovarian epithelial cells of the hamster (Chinese Hamster Ovary, CHO K1, ATCC: American Type Culture Collection, Manassas, Va. 20108, USA). The test cell lines constitutively express a modified form of the calcium-sensitive photoprotein aequorin, which after reconstitution with the cofactor coelenterazine emits light on an increase in the free calcium concentrations [Rizzuto R, Simpson A W, Brini M, Pozzan T, Nature 358, 325-327 (1992)]. In addition, the cells are stably transfected with human or rat V1a- or V2 receptors. In the case of the Gs-coupled V2 receptors, the cells are stably transfected with a further gene which codes for the promiscuous Gα16-Protein [Amatruda T T, Steele D A, Slepak V Z, Simon M I, Proceedings of the National Academy of Science USA 88, 5587-5591 (1991)]. The resulting vasopressin receptor test cells react to stimulation of the recombinantly expressed vasopressin receptors with an intracellular release of calcium ions, which can be quantified by the resulting aequorin luminescence with a suitable luminometer [Milligan G, Marshall F, Rees S, Trends in Pharmacological Sciences 17, 235-237 (1996)].
(§3) On the day before the text, the cells are plated out in culture medium (DMEM, 10% FCS, 2 mM glutamine, 10 mM HEPES) in 384-well microtitre plates and kept in a cell incubator (96% atmospheric humidity, 5% v/v CO2, 37° C.). On the test day, the culture medium is replaced by a Tyrode solution (140 mM NaCl, 5 mM KCl, 1 mM MgCl2, 2 mM CaCl2, 20 mM glucose, 20 mM HEPES) which in addition contains the cofactor coelenterazine (50 μM), and the microtitre plate is then incubated for a further 3-4 hours. The test substances in various concentrations are placed beforehand in the wells of the microtitre plate for 10 to 20 minutes, before the agonist [Arg^8]-vasopressin is added and the resulting light signal immediately measured in the luminometer. The IC50 values are calculated by means of the computer program GraphPad PRISM (Version 3.02).

human V2 receptor = biological target: T2, human V2 receptor (Homo sapiens, UniProt P30518); assay: Cellular in vitro test for determination of the vasopressin receptor activity (aequorin luminescence, CHO cells), human V2; format: cell-based; settings: cell line transfected with the human V2 receptor, antagonism of [Arg8]-vasopressin, read-out: IC50 hV2
T2 construct: expressed in transfected cells; host or cells: CHO K1 (ATCC), constitutively expressing a modified aequorin and stably co-transfected with promiscuous G-alpha-16
T2 sequence (P30518 whole entry): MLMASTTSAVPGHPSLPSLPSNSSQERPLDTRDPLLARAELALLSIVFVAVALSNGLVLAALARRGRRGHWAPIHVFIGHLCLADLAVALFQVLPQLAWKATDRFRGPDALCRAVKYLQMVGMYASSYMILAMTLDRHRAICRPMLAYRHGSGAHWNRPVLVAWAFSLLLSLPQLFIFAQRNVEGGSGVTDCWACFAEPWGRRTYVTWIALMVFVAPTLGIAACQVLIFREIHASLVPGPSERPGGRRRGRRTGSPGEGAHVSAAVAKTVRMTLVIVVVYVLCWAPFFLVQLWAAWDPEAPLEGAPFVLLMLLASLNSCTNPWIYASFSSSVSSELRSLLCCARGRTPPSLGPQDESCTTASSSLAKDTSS
Excerpt: as §1, §2, §3

Row | SMILES | IC50 (human V1a receptor) | IC50 (human V2 receptor)
1 | CCC(O)Cn1c(-c2ccc(Cl)cc2)nn(CC(=O)NC(C)(C)c2cccc(C(F)(F)F)c2)c1=O (single isomer, unassigned) [Example 485, 2-[3-(4-chlorophenyl)-5-oxo-4-(2-hydroxybutyl)-4,5-dihydro-1H-1,2,4-triazol-1-yl]-N-{1-methyl-1-[3-(trifluoromethyl)phenyl]ethyl}-acetamide] | 12 nM | 2 nM
2 | CC(NC(=O)Cn1nc(-c2ccc(Cl)cc2)n(C2CC2)c1=O)c1ccccc1C(F)(F)F (centres unmarked) [Example 28] | 30 nM | 180 nM
3 | COc1ccc(Cn2c(-c3ccc(Cl)cc3)nn(CC(=O)NC(C)(C)c3cccc(C(F)(F)F)c3)c2=O)cc1 [Example 29] | 170 nM | 9 nM
4 | O=C(Cn1nc(-c2ccc(Cl)cc2)n(CC2CCCCC2)c1=O)NCc1cccc(C(F)(F)F)c1 [Example 59] | 1100 nM | 9 nM
5 | CC(C)Cn1c(-c2ccc(Cl)s2)nn(CC(=O)NCc2ccccc2C(F)(F)F)c1=O [Example 63] | 38 nM | > 10000 nM
6 | CC(C)(NC(=O)Cn1nc(-c2ccc(Cl)cc2)n(C2CC2)c1=O)c1cccc(C(F)(F)F)c1 [Example 75, 2-[3-(4-chlorophenyl)-4-cyclopropyl-5-oxo-4,5-dihydro-1H-1,2,4-triazol-1-yl]-N-{1-methyl-1-[3-(trifluoromethyl)phenyl]ethyl}acetamide] | 390 nM | 26 nM
7 | CC(C)Cn1c(-c2ccc(Cl)s2)nn(CC(=O)NC(C)(C)c2cccc(C(F)(F)F)c2)c1=O [Example 84] | 320 nM | 8 nM
8 | CCn1c(-c2ccc(Cl)cc2)nn(CC(=O)NCc2ccccc2C(F)(F)F)c1=O [Example 101] | 94 nM | 1100 nM
9 | O=C(Cn1nc(-c2ccc(Cl)cc2)n(Cc2ccccc2F)c1=O)NCc1cccc(C(F)(F)F)c1 [Example 145] | 95 nM | 7 nM
10 | CC(C)Cn1c(-c2ccccc2-c2ccccc2)nn(CC(=O)NCc2cccc(C(F)(F)F)c2)c1=O [Example 151] | 3400 nM | 930 nM
11 | COc1ccc(Cn2c(-c3ccc(Cl)cc3)nn(CC(=O)NCc3cccc(C(F)(F)F)c3)c2=O)cc1 [Example 153, 2-[3-(4-chlorophenyl)-4-(4-methoxyphenylmethyl)-5-oxo-4,5-dihydro-1H-1,2,4-triazol-1-yl]-N-[3-(trifluoromethyl)phenylmethyl]acetamide] | 42 nM | 12 nM
12 | Cc1c(-c2ccc(Cl)cc2)n(C2CC2)c(=O)n1CC(=O)N[C@@H](C)c1cccc2ccccc12 [Example 207] | 230 nM | 63 nM
13 | COc1cc(Cl)ccc1-c1nn(CC(=O)NC(C)(C)c2cccc(C(F)(F)F)c2)c(=O)n1Cc1ccccc1F [Example 216, 2-[3-(4-chloro-2-methoxyphenyl)-4-(2-fluorobenzyl)-5-oxo-4,5-dihydro-1H-1,2,4-triazol-1-yl]-N-[1-methyl-1-(3-trifluoromethyl-phenyl)ethyl]-acetamide] | 73 nM | 6 nM
14 | COc1cc(Cl)ccc1-c1nn(CC(=O)NCc2ccccc2C(F)(F)F)c(=O)n1Cc1ccccc1F [Example 227] | 8 nM | 37 nM
15 | CC(C)(NC(=O)Cn1nc(-c2ccc(Cl)cc2Cl)n(C2CC2)c1=O)c1cccc(C(F)(F)F)c1 [Example 230] | 783 nM | 83 nM
16 | Cc1cc(Cl)ccc1-c1nn(CC(=O)NCCc2ccccc2C(F)(F)F)c(=O)n1Cc1ccccc1F [Example 241] | 76 nM | 271 nM
17 | CN(C)C(CNC(=O)Cn1nc(-c2ccc(Cl)cc2)n(Cc2ccccc2F)c1=O)c1ccccc1Cl (centres unmarked) [Example 265] | 28 nM | 749 nM
18 | O=C(Cn1nc(-c2ccc(Cl)cc2)n(Cc2ccccc2F)c1=O)NC1(Cc2ccccc2C(F)(F)F)CC1 [Example 284] | 9 nM | 191 nM
19 | O=C(Cn1nc(-c2ccc(Cl)cc2)n(Cc2ccccc2F)c1=O)NCc1cccc(C(F)(F)F)c1Cl [Example 296] | 54 nM | 9 nM
20 | COC(=O)[C@@H](Cc1ccccc1C(F)(F)F)NC(=O)Cn1nc(-c2ccc(Cl)cc2)n(C2CC2)c1=O [Example 321] | 50 nM | 510 nM
21 | O=C(Cn1nc(-c2ccc(Cl)cc2)n(C2CC2)c1=O)NC(C(=O)NC1CC1)c1ccccc1C(F)(F)F (centres unmarked) [Example 340] | 39 nM | 1150 nM

More lines, in order of falling IC50 (human V1a receptor), values ahead:

Row | IC50 (human V1a receptor) | IC50 (human V2 receptor) | SMILES
22 | 6300 nM | 180 nM | O=C(CCn1nc(-c2ccc(Cl)cc2)n(C2CC2)c1=O)NCc1cccc(C(F)(F)F)c1 [Example 25]
23 | 6300 nM | 180 nM | CC(C(=O)NC(C)(C)c1cccc(C(F)(F)F)c1)n1cc(-c2ccc(Cl)cc2)n(C2CC2)c1=O (centres unmarked) [Example 214]
24 | 960 nM | 6 nM | O=C(Cn1nc(-c2ccc(Cl)cc2)n(Cc2ccc(F)cc2)c1=O)NCc1cccc(C(F)(F)F)c1 [Example 143]
25 | 761 nM | 666 nM | O=C(Cn1nc(-c2ccc(Cl)cc2)n(Cc2ccccc2F)c1=O)NCc1c(C(F)(F)F)cccc1C(F)(F)F [Example 288]
26 | 440 nM | 420 nM | COc1ccccc1CCNC(=O)Cn1nc(-c2ccc(Cl)cc2)n(C2CC2)c1=O [Example 159]
27 | 338 nM | 5 nM | O=C(Cn1nc(-c2ccc(Cl)cc2)n(CC(O)C(F)(F)F)c1=O)N[C@@H]1C[C@@H]1c1cccc(C(F)(F)F)c1 (mixture of isomers) [Example 357, 2-[3-(4-chlorophenyl)-5-oxo-4-(3,3,3-trifluoro-2-hydroxypropyl)-4,5-dihydro-1H-1,2,4-triazol-1-yl]-N-{(1RS,2RS)-[2-(3-trifluoromethyl-phenyl)cyclopropyl]}-acetamide]
28 | 165 nM | 30 nM | CC(C)(NC(=O)Cn1nc(-c2ccc(F)c(F)c2)n(Cc2ccccc2F)c1=O)c1cccc(C(F)(F)F)c1 [Example 221]
29 | 157 nM | 5 nM | COc1cc(Cl)ccc1-c1nn(CC(=O)NC(C)(C)c2cccc(C(F)(F)F)c2)c(=O)n1Cc1cccc(F)c1 [Example 262]
30 | 140 nM | 260 nM | CCn1c(-c2ccc(Cl)cc2)cn(CC(=O)NC(C)c2cccc(C(F)(F)F)c2)c1=O (centres unmarked) [Example 209]
31 | 107 nM | 28 nM | Cc1c(CNC(=O)Cn2nc(-c3ccc(Cl)cc3)n(C3CC3)c2=O)cccc1C(F)(F)F [Example 325]
32 | 93 nM | 784 nM | O=C(Cn1nc(-c2ccc(Cl)cc2)n(C2CC2)c1=O)NCC1(c2ccccc2F)CCCC1 [Example 305]
33 | 90 nM | 9 nM | Cc1ccc(-c2nn(CC(=O)NC(C)(C)c3cccc(C(F)(F)F)c3)c(=O)n2Cc2ccccc2F)s1 [Example 219]
34 | 37 nM | 13 nM | C[C@H](NC(=O)Cn1nc(-c2ccc(Cl)s2)n(Cc2ccccc2F)c1=O)c1cccc(C(F)(F)F)c1 [Example 251]
35 | 30 nM | 154 nM | O=C(Cn1nc(-c2ccccc2O)n(Cc2cccc(F)c2)c1=O)NCCc1ccccc1C(F)(F)F [Example 260]
36 | 24 nM | 1520 nM | O=C(Cn1nc(-c2ccc(Cl)cc2)n(C2CC2)c1=O)NC1(Cc2ccccc2C(F)(F)F)CC1 [Example 320]
37 | 18 nM | 447 nM | CC(NC(=O)Cn1nc(-c2ccc(Cl)s2)n(Cc2ccccc2F)c1=O)c1nccc2ccccc12 (centres unmarked) [Example 252]
38 | 12 nM | 2 nM | CC(C)(NC(=O)Cn1nc(-c2ccc(Cl)cc2)n(CC(O)C(F)(F)F)c1=O)c1cccc(C(F)(F)F)c1 (single isomer, unassigned) [Example 451, 2-[3-(4-chlorophenyl)-5-oxo-4-(3,3,3-trifluoro-2-hydroxypropyl)-4,5-dihydro-1H-1,2,4-triazol-1-yl]-N-{1-methyl-1-[3-(trifluoromethyl)phenyl]ethyl}-acetamide]
39 | 12 nM | 3 nM | CC(C)(NC(=O)Cn1cc(-c2ccc(Cl)cc2)n(CC(O)C(F)(F)F)c1=O)c1cccc(C(F)(F)F)c1 (single isomer, unassigned) [Example 501, 2-[4-(4-chlorophenyl)-2-oxo-3-(3,3,3-trifluoro-2-hydroxypropyl)-2,3-dihydro-1H-imidazol-1-yl]-N-{1-methyl-1-[3-(trifluoromethyl)phenyl]ethyl}-acetamide]
40 | 3 nM | 1020 nM | CC(C)(CNC(=O)Cn1nc(-c2ccc(Cl)cc2)n(C2CC2)c1=O)c1ccccc1C(F)(F)F [Example 313]
